Source: patent US6890906B2, “Method for controlling angiogenesis in animals” (Glycogenesys, Inc., priority 2001, dated 2005)
Values joined by “and” are separate entries in the source; they are usually repeats but may differ in a detail not shown here. Identical values can stand only once. Like-named read-outs stand apart in the source and are kept apart here.

What was measured:
[1] = tested on: human umbilical vein endothelial cells (HUVEC); assay: Inhibition of VEGF-induced HUVEC cell migration by modified pectin in transwell plate; type: cell-based; conditions: VEGF 30 ng/ml Only (positive control, no GCS-100)
Protocol: Following incubation, the membranes were fixed and stained. […] Three runs were made.
The material comprised a modified pectin which is commercially available from GlycoGenesys, Inc. of Boston, Mass., under the designation GCS-100. In this experimental series, HUVEC cells were incubated in a transwell plate with VEGF, and varying concentrations of the therapeutic material, under conditions as described hereinabove. The concentration of VEGF was 30 ng/ml. In one group of experiments, cells were incubated with VEGF in the absence of the carbohydrate material, and these experiments served as a positive control. In another group of experiments, cells were incubated with growth medium and no VEGF or therapeutic carbohydrate, and this group served as a negative control. In the remaining experiments, concentrations of the GCS-100 ranging from 0.001% to 0.1% were employed.

[2] = tested on: human umbilical vein endothelial cells (HUVEC); conditions: for AVERAGE cell count: average of runs; for Cell count (cells that migrated through the membrane): single runs, 4 hours, 37° C.
Protocol: In a first portion of the experimental series, the effect of the chemoattractant vascular endothelial growth factor (VEGF) on human umbilical vein endothelial cells (HUVEC) was quantified. The experiment was carried out in a transwell plate, and in preparation therefor, HUVEC cells were grown to approximately 80% confluency. The cells were suspended in basal media and placed in a transwell plate on fibronectin coated membrane inserts at 50,000 cells per insert. Varying concentrations of VEGF were added to the bottom chamber of the transwell plate, and the plates incubated for 4 hours at 37° C. with a 5% CO2 atmosphere. Following incubation, the membranes were fixed and stained. Nonmigrated cells were removed by mechanical abrasion and cells that migrated through the membrane were counted. […] Three runs were made.

In the case of “vascular endothelial growth factor [VEGF]”, the AVERAGE cell count ([1]; average) is reported as 1244, the “Cell count (migrated cells)” value ([1]; single runs) is reported as 1322 and 1167 and the AVERAGE cell count ([2]; 1 ng/ml VEGF) is reported as 734. For the same substance, the “Cell count (cells that migrated through the membrane)” value ([2]; 1 ng/ml VEGF) was 607 and 766 and 830, the AVERAGE cell count ([2]; 3 ng/ml VEGF) was 1043 and the “Cell count (cells that migrated through the membrane)” value ([2]; 3 ng/ml VEGF) was 950 and 1136. The AVERAGE cell count ([2]; 10 ng/ml VEGF) was 1218, the “Cell count (cells that migrated through the membrane)” value ([2]; 10 ng/ml VEGF) was 1144 and 938 and 1573 and the AVERAGE cell count ([2]; 30 ng/ml VEGF) was 1162. For the same substance, the “Cell count (cells that migrated through the membrane)” value ([2]; 30 ng/ml VEGF) was 898 and 1448 and 1140, the AVERAGE cell count ([2]; 100 ng/ml VEGF) was 1210 and the “Cell count (cells that migrated through the membrane)” value ([2]; 100 ng/ml VEGF) was 1650 and 901 and 1078. The chemotactic effect ([2]; VEGF concentrations of 10-30 ng/ml) was “strong chemotactic effect”.
